Source: patent US9024021B2, “Diarylacetylene hydrazide containing tyrosine kinase inhibitors” (Sun Pharma Advanced Research Company Ltd., priority 2011, dated 2015)

System: K562 cells
Assay: In-vitro cell proliferation assay (MTT), K562 cells
Assay type: cell-based
Conditions: for inhibition at 0.01 µM / inhibition at 0.1 µM: Homo sapiens
Method: In-Vitro Cell Proliferation Assay
K562/U937 cells (2×10^4 per well) were incubated with the test compounds/vehicle in a total volume of 200 μL of media at 37° C. with 5% CO2. […] The cells were incubated overnight at 37° C. with 5% CO2. On Day 5 the optical density was measured at 570 nm with 630 nm as reference wavelength. The optical density in the vehicle treated wells was compared with that of the test compound treated wells.

| SMILES | inhibition at 0.01 µM (10 nM) [%] | inhibition at 0.1 µM (100 nM) [%] | % Inhibition of cell proliferation in K562 cells (10 nM) [%] | % Inhibition of cell proliferation in K562 cells (100 nM) [%] |
| --- | --- | --- | --- | --- |
| Cc1ccc2ncc(C#Cc3cc(C(=O)NNC(=O)c4c(C)cccc4Cl)ccc3C)cc2c1 [I.44, N′-(2-Chloro-6-methylbenzoyl)-4-methyl-3-[2-(6-methyl-3-quinolyl)ethynyl]benzohydrazide] | 77.7 | 84.4 | – | – |
| COc1cccc(Cl)c1C(=O)NNC(=O)c1ccc(C)c(C#Cc2cnc3ccccc3c2)c1 [I.34, N′-(2-Chloro-6-methoxybenzoyl)-4-methyl-3-[2-(3-quinolyl)ethynyl]benzohydrazide] | 75.5 | 82.2 | – | – |
| Cc1ccc(C(=O)NNC(=O)c2c(C)cccc2Cl)cc1C#Cc1cnc2ccccn12 [I.19, N′-(2-Chloro-6-methylbenzoyl)-3-[2-(imidazo[1,2-a]pyridin-3-yl)ethynyl]-4-methylbenzohydrazide] | 60.2 | 80.2 | – | – |
| Cc1ccc(C(=O)NNC(=O)c2c(Cl)cccc2C(C)C)cc1C#Cc1cnc2ccccc2c1 [I.32, N′-(2-Chloro-6-isopropylbenzoyl)-4-methyl-3-[2-(3-quinolyl)ethynyl]benzohydrazide] | 50.6 | 81.9 | – | – |
| Cc1cn(-c2cc(C(=O)NNC(=O)c3ccc(C)c(C#Cc4cnc5ccccc5c4)c3)cc(C(F)(F)F)c2)cn1 [I.7, 4-Methyl-N′-[3-(4-methylimidazol-1-yl)-5-(trifluoromethyl)benzoyl]-3-[2-(3-quinolyl)ethynyl]benzohydrazide] | 12.6 | 43.1 | – | – |
| Cc1ccc(C(=O)NNC(=O)c2ccc(CN3CCN(C)CC3)c(C(F)(F)F)c2)cc1C#Cc1cnc2ccccc2c1 [I.3, 4-Methyl-N′-[4-[(4-methylpiperazin-1-yl)methyl]-3-(trifluoromethyl)benzoyl]-3-[2-(3-quinolyl)ethynyl]benzohydrazide] | 14.6 | 73.4 | – | – |
| Cc1ccc(C(=O)NNC(=O)c2c(F)cccc2I)cc1C#Cc1cnc2ccccc2c1 [I.23, N′-(2-Fluoro-6-iodobenzoyl)-4-methyl-3-[2-(3-quinolyl)ethynyl]benzohydrazide] | 68.1 | 72.6 | – | – |
| Cc1ccc(C(=O)NNC(=O)c2c(Cl)cc(Cl)cc2Cl)cc1C#Cc1cnc2ccccc2c1 [I.1, 2,4,6-Trichloro-N′-[4-methyl-3-[2-(3-quinolyl)ethynyl]benzoyl]benzohydrazide] | 101 | 105 | – | – |
| Cc1ccc(C(=O)NNC(=O)c2c(C)cccc2[N+](=O)[O-])cc1C#Cc1cnc2ccccc2c1 [I.36, N′-(2-Methyl-6-nitrobenzoyl)-4-methyl-3-[2-(3-quinolyl)ethynyl]benzohydrazide] | 75.9 | 77.3 | – | – |
| Cc1cc(C)c(C(=O)NNC(=O)c2ccc(C)c(C#Cc3cnc4ccccc4c3)c2)c(C)c1 [I.8, 2,4,6-Trimethyl-N′-[4-methyl-3-[2-(3-quinolyl)ethynyl]benzoyl]benzohydrazide] | 53.6 | 80.3 | – | – |
| Cc1ccc(C(=O)NNC(=O)c2c(Cl)cc(Cl)cc2Cl)cc1C#Cc1cnc2cnccn12 [I.15, 2,4,6-Trichloro-N′-[3-[2-(2-imidazo[1,2-a]pyrazin-3-yl)ethynyl]-4-methylbenzoyl]benzohydrazide] | – | – | 82.8 | 85.0 |
| Cc1cccc(Cl)c1C(=O)NNC(=O)c1ccc(F)c(C#Cc2cnc3ccccc3c2)c1 [I.21, N′-(2-Cchloro-6-methylbenzoyl)-4-fluoro-3-[2-(3-quinolyl)ethynyl]benzohydrazide] | – | – | 40.9 | 98.6 |
| Cc1ccc(C(=O)NNC(=O)c2c(Cl)cccc2I)cc1C#Cc1cnc2ccccc2c1 [I.39, N′-(2-Chloro-6-iodobenzoyl)-4-methyl-3-[2-(3-quinolyl)ethynyl]benzohydrazide] | 77.1 | 80.5 | – | – |
| Cc1ccc(C(=O)NNC(=O)c2c(C)cccc2Br)cc1C#Cc1cnc2ccccc2c1 [I.11, N′-(2-Bromo-6-methylbenzoyl)-4-methyl-3-[2-(3-quinolyl)ethynyl]benzohydrazide] | 78.9 | 79.9 | – | – |
| Cc1ccc(C(=O)NNC(=O)c2ccccc2Cl)cc1C#Cc1cnc2ccccc2c1 [I.40, N′-(2-Chlorobenzoyl)-4-methyl-3-[2-(3-quinolyl)ethynyl]benzohydrazide] | 59.9 | 84.3 | – | – |
| CCc1cccc(Cl)c1C(=O)NNC(=O)c1ccc(C)c(C#Cc2cnc3ccccc3c2)c1 [I.31, N′-(2-Chloro-6-ethylbenzoyl)-4-methyl-3-[2-(3-quinolyl)ethynyl]benzohydrazide] | 74.2 | 81.4 | – | – |
| Cc1ccc(C(=O)NNC(=O)c2ccccc2C)cc1C#Cc1cnc2ccccc2c1 [I.30, N′-(2-Methylbenzoyl)-4-methyl-3-[2-(3-quinolyl)ethynyl]benzohydrazide] | 49 | 85 | – | – |
| Cc1ccc(C(=O)NNC(=O)c2c(Cl)cccc2Cl)cc1C#Cc1cnc2cccnn12 [I.41, N′-(2,6-Dichlorobenzoyl)-4-methyl-3-[(imidazo(1,2-b)pyridazin-3-yl)ethynyl]benzohydrazide] | 82.5 | 81.1 | – | – |
| Cc1ccc(C(=O)N(C)NC(=O)c2c(C)cccc2Cl)cc1C#Cc1cnc2ccccc2c1 [I.45, N-Methyl-N′-(2-Chloro-6-methylbenzoyl)-4-methyl-3-[2-(3-quinolyl)ethynyl]benzohydrazide] | 10.2 | 78.2 | – | – |
| Cc1cccc(Cl)c1C(=O)NNC(=O)c1cccc(C#Cc2cnc3ccccc3c2)n1 [I.60, N′-(2-Chloro-6-methylbenzoyl)-6-[2-(3-quinolyl)ethynyl]pyridine-2-carboxylic acid hydrazide] | 8.6 | 8.5 | – | – |
| Cc1ccc(C(=O)NNC(=O)c2c(C)cccc2C)cc1C#Cc1cnc2ccccc2c1 [I.46, N′-(2,6-Dimethylbenzoyl)-4-methyl-3-[2-(3-quinolyl)ethynyl]benzohydrazide] | 77.9 | 83.9 | – | – |
| Cc1ccc(C(=O)NNCc2cccnc2Cl)cc1C#Cc1cnc2ccccc2c1 [I.29, N′-(2-Chloronicotinyl)-4-methyl-3-[2-(3-quinolyl)ethynyl]benzohydrazide] | 27.7 | 78.5 | – | – |
| Cc1ccc(C(=O)NNC(=O)c2c(C)cccc2Cl)cc1C#Cc1cnc2ccc(Cl)cc2c1 [I.50, N′-(2-Chloro-6-methylbenzoyl)-4-methyl-3-[2-(6-chloro-3-quinolyl)ethynyl]benzohydrazide] | 69.6 | 75 | – | – |
| Cc1ccc(C(=O)NNC(=O)c2c(Cl)cccc2C(F)(F)F)cc1C#Cc1cnc2ccccc2c1 [I.24, N′-[2-Chloro-6-(trifluoromethyl)benzoyl]-4-methyl-3-[2-(3-quinolyl)ethynyl]benzohydrazide] | 71.1 | 71.3 | – | – |
| COc1cccc(C)c1C(=O)NNC(=O)c1ccc(C)c(C#Cc2cnc3ccccc3c2)c1 [I.13, N′-(2-Methoxy-6-methylbenzoyl)-4-methyl-3-[2-(3-quinolyl)ethynyl]benzohydrazide] | 52.2 | 73.5 | – | – |
